Experiment [1] deals with T1, Tubulin (Bos taurus) (UniProt Q6B856+Q862L2+Q862F3). Particulars: at 10 µM.
Description: Inhibition of tubulin polymerization in bovine brain at 10 uM
The test system of experiment [2] is A-431. Put plainly: Cell cycle arrest in A431 cells by accumulation at G2/M phase cell at 0.1uM. Particulars: Homo sapiens. The experiment is classed as functional.
The subject of experiment [3] is A-431. Put plainly: Cell cycle arrest in A431 cells by accumulation at G2/M phase cell. The experiment is classed as functional, cell-based. Particulars: Homo sapiens.
Experiment [4] addresses T1, Tubulin (Bos taurus). Put plainly: Inhibition of tubulin polymerization in bovine brain at 3.33 uM.

A value given as a limit tells only on which side of the number the result lay.

In turn, `COc1cc(Nc2ncccc2-c2n[nH]c(Nc3ccc(N(C)C)cc3)n2)cc(OC)c1` yielded an inhibition on Tubulin (Bos taurus) [1] of 35%. The compound `O=C1CCCN1CCCNc1ncccc1-c1n[nH]c(Nc2ccc3c(c2)OCCO3)n1` gave an inhibition against Tubulin (Bos taurus) [1] of 21%. With `COc1ccc(/C=C\c2cc(OC)c(OC)c(OC)c2)cc1O` [COMBRETASTATIN A4], the inhibition at 0.1 µM in the experiment with A-431 [2] stood at 88%. Take `COc1cc(Nc2ncncc2-c2n[nH]c(Nc3ccc4c(c3)OCCO4)n2)cc(OC)c1`: the EC50 in the experiment with A-431 [3] came out at 53 nM. The inhibition at 0.1 µM in the experiment on A-431 [2] came to 68%. For the same compound, the inhibition at Tubulin (Bos taurus) [1] amounted to 100%.

In the experiment on A-431 [2], `COc1ccc(CNc2ncccc2-c2n[nH]c(Nc3ccc4c(c3)OCCO4)n2)cc1` came in with an inhibition at 0.1 µM of 30%. Further, the inhibition against Tubulin (Bos taurus) [1] turned out to be 68%.

On to `COc1cc(Nc2n[nH]c(-c3cccnc3Nc3cc(OC)cc(OC)c3)n2)cc(OC)c1`, for which, at Tubulin (Bos taurus) [1], the inhibition was found to be 45%. As to `COc1cc(Nc2ncccc2-c2nnc(Nc3ccc4c(c3)OCCO4)n2C)cc(OC)c1`, the inhibition against Tubulin (Bos taurus) [4] worked out at 64%. In the experiment on A-431 [3], the EC50 came out at 240 nM. This compound also yielded an inhibition at 0.1 µM in the experiment with A-431 [2] of 25%. The compound `COc1cc(Nc2ncccc2-c2n[nH]c(Nc3ccc4c(c3)OCCO4)n2)cc(OC)c1` gave an EC50 in the experiment with A-431 [3] of 117 nM. Besides, the inhibition at 0.1 µM in the experiment with A-431 [2] was 83%. Also, the inhibition against Tubulin (Bos taurus) [1] came out at 95%. As to `COc1cc(OC)cc(Oc2ncccc2-c2nc(N(C)c3cccc(OC)c3)n[nH]2)c1`, the inhibition at Tubulin (Bos taurus) [4] was 5%.

Take `COc1cc(Nc2ncccc2-c2n[nH]c(Nc3ccc(C#N)cc3)n2)cc(OC)c1`: the inhibition at Tubulin (Bos taurus) [1] worked out at 34%. Still for that read-out and setting: in the case of `COc1cccc(Nc2n[nH]c(-c3cccnc3Nc3cccc(OC)c3)n2)c1` it was 9%. On to `COc1cc(Nc2ncccc2-c2nc(Nc3cc(OC)ccc3OC)n[nH]2)cc(OC)c1`, for which, in the experiment with A-431 [3], the EC50 was > 10000 nM. In the experiment with A-431 [2], this compound registered an inhibition at 0.1 µM of 20%. This compound also showed an inhibition against Tubulin (Bos taurus) [1] of 33%.

`COc1cc(Nc2ncccc2-c2nc(Nc3ccc(OC)cc3OC)n[nH]2)cc(OC)c1`: the inhibition at 0.1 µM in the experiment on A-431 [2] came out at 17%. This compound also returned an inhibition at Tubulin (Bos taurus) [1] of 47%. `Fc1ccc(CNc2ncccc2-c2n[nH]c(Nc3ccc4c(c3)OCO4)n2)cc1F` gave an inhibition at 0.1 µM in the experiment with A-431 [2] of 23%. Also, the inhibition on Tubulin (Bos taurus) [1] came out at 84%.

Regarding `COc1cc(Nc2ncccc2-c2n[nH]c(Nc3ccccc3)n2)cc(OC)c1`, the concentration giving a half-maximal response (EC50) with A-431 [3] was > 10000 nM. In the experiment on A-431 [2], the inhibition at 0.1 µM stood at 22%. In addition, the inhibition against Tubulin (Bos taurus) [1] amounted to 5%. Take `COc1ccc(C(=O)Nc2n[nH]c(-c3cccnc3Oc3cc(OC)cc(OC)c3)n2)cc1`: the inhibition against Tubulin (Bos taurus) [4] is 8%. At Tubulin (Bos taurus) [4], `COc1cc(OC)cc(Oc2ncccc2-c2n[nH]c(NCc3ccc4c(c3)OCO4)n2)c1` returned an inhibition of 90%. Further, in the experiment with A-431 [2], the inhibition at 0.1 µM amounted to 24%. With `COc1cccc(Nc2n[nH]c(-c3cccnc3Nc3ccccc3)n2)c1`, the inhibition against Tubulin (Bos taurus) [1] was found to be 4%.

The compound `c1cncc(CCNc2ncccc2-c2n[nH]c(Nc3ccc4c(c3)OCCO4)n2)c1` yielded an inhibition at Tubulin (Bos taurus) [1] of 23%. In turn, `COc1cc(Nc2ncccc2-c2nc(Nc3ccc4c(c3)OCCO4)n(C)n2)cc(OC)c1` returned an EC50 in the experiment with A-431 [3] of 130 nM. In addition, the inhibition at 0.1 µM in the experiment with A-431 [2] amounted to 26%. This compound displayed an inhibition at Tubulin (Bos taurus) [1] of 76%. In turn, `COc1cc2c(c(OC)c1OC)-c1ccc(OC)c(=O)cc1[C@@H](NC(C)=O)CC2` [COLCHICINE] registered an EC50 with A-431 [3] of 2.8 nM. This compound also gave an inhibition at 0.1 µM with A-431 [2] of 80%.

Take `COc1cc(OC)cc(Oc2ncccc2-c2nnc(Nc3ccc4c(c3)OCCO4)n2C)c1`: the inhibition on Tubulin (Bos taurus) [4] was found to be 30%. Regarding `COc1cccc(CNc2n[nH]c(-c3cccnc3Nc3cc(OC)cc(OC)c3)n2)c1`, the response with A-431 [3] was half-maximal at 120 nM (EC50). The compound further displayed an inhibition at 0.1 µM in the experiment on A-431 [2] of 71%. At Tubulin (Bos taurus) [1], the inhibition stood at 100%.

Compound `COc1cc(OC)cc(Oc2ncccc2-c2n[nH]c(Nc3cccnc3)n2)c1` displayed an inhibition on Tubulin (Bos taurus) [4] of 49%. The EC50 in the experiment on A-431 [3] was 66 nM. The inhibition at 0.1 µM in the experiment on A-431 [2] stood at 61%. The compound `COc1ccc(CNc2n[nH]c(-c3cccnc3Nc3cc(OC)cc(OC)c3)n2)cc1` returned an inhibition at 0.1 µM in the experiment with A-431 [2] of 22%. In addition, the inhibition against Tubulin (Bos taurus) [1] was determined as 88%. For `COc1cc(OC)cc(Oc2cnccc2-c2n[nH]c(Nc3ccc4c(c3)OCCO4)n2)c1`, the inhibition against Tubulin (Bos taurus) [4] came out at 59%. The compound further showed an EC50 with A-431 [3] of 210 nM. At 0.1 µM the inhibition with A-431 [2] was 40%.

Consider `COc1cc(OC)cc(Oc2ncccc2-c2n[nH]c(Nc3ccc(C#N)cc3)n2)c1`, for which the inhibition against Tubulin (Bos taurus) [4] worked out at 57%; on Tubulin (Bos taurus) [1], 97%. In the experiment with A-431 [2], this compound came in with an inhibition at 0.1 µM of 27%.

At Tubulin (Bos taurus) [1], `COc1cccc(Nc2n[nH]c(-c3cccnc3Nc3cc(F)cc(F)c3)n2)c1` registered an inhibition of 0%. Compound `Fc1cc(F)cc(Oc2ncccc2-c2n[nH]c(Nc3ccc4c(c3)OCO4)n2)c1` came in with an inhibition on Tubulin (Bos taurus) [4] of 97%. For the same compound, 0.1 µM produced 23% inhibition in the experiment with A-431 [2]. At Tubulin (Bos taurus) [4], `COc1cccc(CN(C)c2n[nH]c(-c3cccnc3Oc3cc(OC)cc(OC)c3)n2)c1` came in with an inhibition of 28%. `COc1cccc(Cc2n[nH]c(-c3cccnc3Nc3cc(OC)cc(OC)c3)n2)c1`: the inhibition on Tubulin (Bos taurus) [1] was determined as 9%. For the compound `Fc1cccc(Oc2ncccc2-c2n[nH]c(Nc3ccc4c(c3)OCO4)n2)c1`, the inhibition against Tubulin (Bos taurus) [4] is 43%. In the experiment on A-431 [2], this compound yielded an inhibition at 0.1 µM of 37%. Turning to `Fc1cc(F)cc(Nc2ncccc2-c2n[nH]c(Nc3ccc4c(c3)OCO4)n2)c1`, the inhibition against Tubulin (Bos taurus) [1] came to 28%. Regarding `COc1ccc(Nc2n[nH]c(-c3cccnc3Nc3cc(OC)cc(OC)c3)n2)cc1`, the half-maximal effective concentration (EC50) in the experiment with A-431 [3] was 83 nM. Also, at 0.1 µM the inhibition with A-431 [2] was 68%. Also, the inhibition against Tubulin (Bos taurus) [1] was found to be 73%.

As for `COc1cc(Nc2nccnc2-c2n[nH]c(Nc3ccc4c(c3)OCO4)n2)cc(OC)c1`, the concentration giving a half-maximal response (EC50) with A-431 [3] amounted to 17 nM. This compound also yielded an inhibition at 0.1 µM in the experiment with A-431 [2] of 85%. The inhibition against Tubulin (Bos taurus) [1] was 89%.

For `COc1cc(OC)cc(Oc2ncccc2-c2n[nH]c(N(C)c3ccncc3)n2)c1`, the inhibition at 0.1 µM in the experiment with A-431 [2] was 44%. The compound also yielded an inhibition against Tubulin (Bos taurus) [1] of 68%.

For `COc1cccc(CNc2n[nH]c(-c3cccnc3Oc3cc(OC)cc(OC)c3)n2)c1`, testing at 0.1 µM in the experiment on A-431 [2] gave an inhibition of 32%. At Tubulin (Bos taurus) [1], this compound returned an inhibition of 100%.

Regarding `COc1cc(Nc2ccncc2-c2n[nH]c(Nc3ccc4c(c3)OCO4)n2)cc(OC)c1`, the EC50 in the experiment with A-431 [3] came to 9.4 nM. The compound further came in with an inhibition at 0.1 µM in the experiment with A-431 [2] of 84%. At Tubulin (Bos taurus) [1], this compound returned an inhibition of 100%. In turn, `c1ccc(Oc2ncccc2-c2nc(Nc3ccc4c(c3)OCO4)n[nH]2)nc1` came in with an inhibition at Tubulin (Bos taurus) [4] of 43%. For the same compound, at 0.1 µM the inhibition with A-431 [2] was 21%. Regarding `c1cnc(NCc2ccncc2)c(-c2n[nH]c(Nc3ccc4c(c3)OCO4)n2)c1`, a half-maximal effect with A-431 [3] (EC50) was put at 66 nM. Moreover, at 0.1 µM the inhibition with A-431 [2] was 70%. The compound further yielded an inhibition at Tubulin (Bos taurus) [1] of 84%.

On to `COc1cc(Nc2ncccc2-c2n[nH]c(Nc3cc(Cl)cc(Cl)c3)n2)cc(OC)c1`, for which the inhibition against Tubulin (Bos taurus) [1] worked out at 44%.

In the case of `Fc1ccc(CNc2ncccc2-c2n[nH]c(Nc3ccc4c(c3)OCCO4)n2)cc1F`, 0.1 µM produced 32% inhibition in the experiment with A-431 [2]. For the same compound, the inhibition on Tubulin (Bos taurus) [1] was 84%. As to `COc1cc(Nc2ccncc2-c2n[nH]c(Nc3ccc4c(c3)OCCO4)n2)cc(OC)c1`, the midpoint of the response in the experiment on A-431 [3], the EC50, lay at 5.3 nM. In the experiment on A-431 [2], this compound gave an inhibition at 0.1 µM of 77%. Further, at Tubulin (Bos taurus) [1], the inhibition was 100%.

Compound `COc1ccc(CNc2n[nH]c(-c3cccnc3Oc3cc(OC)cc(OC)c3)n2)cc1` came in with an inhibition at 0.1 µM in the experiment with A-431 [2] of 28%. This compound registered an inhibition against Tubulin (Bos taurus) [1] of 86%. `COc1cc(Nc2ncccc2-c2nc(-c3cccc(OC)c3)n[nH]2)cc(OC)c1` gave an inhibition against Tubulin (Bos taurus) [1] of 15%. Take `COc1cc(OC)cc(Oc2ncccc2-c2n[nH]c(Nc3cc(F)cc(F)c3)n2)c1`: the inhibition against Tubulin (Bos taurus) [4] was 51%; against Tubulin (Bos taurus) [1], 87%. In addition, at 0.1 µM the inhibition in the experiment with A-431 [2] was 27%.

The values above are taken from ChEMBL document CHEMBL1141190, “Synthesis and structure-activity relationships of 1,2,4-triazoles as a novel class of potent tubulin polymerization inhibitors” (Bioorg Med Chem Lett, 2005).
